According to ChEMBL document CHEMBL3885881, “DrugMatrix”:

Species on record: Rattus norvegicus
Experiment: DrugMatrix - Regimen: Daily Repeat
Format: toxicity, organism-based, Sprague-Dawley
Set-up: regimen Daily Repeat, gender Male, age 6-8 weeks
Settings: in vivo, po, route oral GAVAGE, vehicle .5 % CMC
[1] = 83 mg/kg, 72 h, tissue Blood, dose level High, time 3 day
[2] = 83 mg/kg, 72 h, tissue Plasma, dose level High, time 3 day
[3] = 83 mg/kg, 120 h, tissue Blood, dose level High, time 5 day
[4] = 83 mg/kg, 120 h, tissue Plasma, dose level High, time 5 day
[5] = […], 72 h, tissue Blood, dose 8.3 mg/Kg, dose level Low, time 3 day
[6] = […], 72 h, tissue Plasma, dose 8.3 mg/Kg, dose level Low, time 3 day
[7] = […], 120 h, tissue Blood, dose 8.3 mg/Kg, dose level Low, time 5 day
[8] = […], 120 h, tissue Plasma, dose 8.3 mg/Kg, dose level Low, time 5 day

Substance: SODIUM ORTHOVANAD
- ABSOLUTE BASOPHIL [1]: 0 CELLS/uL
- ABSOLUTE EOSINOPHIL [1]: 49.33 CELLS/uL
- ABSOLUTE LYMPHOCYTE [1]: 13060 CELLS/uL
- ABSOLUTE MONOCYTE [1]: 206 CELLS/uL
- ABSOLUTE SEGMENTED NEUTROPHIL [1]: 2051.33 CELLS/uL
- BASOPHIL [1]: 0%
- EOSINOPHIL [1]: 0.33%
- ERYTHROCYTE COUNT [1]: 5.99 x10E6/uL
- LEUKOCYTE COUNT [1]: 15.37 x10E3/uL
- LYMPHOCYTE [1]: 85%
- MEAN CORPUSCULAR HEMOGLOBIN [1]: 23.17 pg
- MEAN CORPUSCULAR HEMOGLOBIN CONCENTRATION [1]: 37.8 G/DL
- NEUTROPHIL [1]: 13.33%
- NUCLEATED RED BLOOD CELLS [1]: 0.67 /100WBC
- PLATELET COUNT [1]: 1409 x10E3/uL
- ALANINE AMINOTRANSFERASE [2]: 51.33 u/L
- ALKALINE PHOSPHATASE [2]: 333.67 u/L
- ASPARTATE AMINOTRANSFERASE [2]: 81.67 u/L
- BLOOD UREA NITROGEN [2]: 13.33 mg/dL
- CARBON DIOXIDE [2]: 16.67 mmol/L
- CHOLESTEROL [2]: 69 mg/dL
- CREATINE PHOSPHOKINASE [2]: 309.33 u/L
- CREATININE [2]: 0.2 mg/dL
- LACTATE DEHYDROGENASE [2]: 147.67 u/L
- LIPASE [2]: 9 u/L
- PHOSPHORUS [2]: 10.33 mg/dL
- POTASSIUM [2]: 6.71 MEQ/L
- SODIUM [2]: 146.67 MEQ/L
- TOTAL BILIRUBIN [2]: 0.27 mg/dL
- TOTAL PROTEIN [2]: 5.43 G/DL
- URIC ACID [2]: 1.8 mg/dL
- ABSOLUTE BASOPHIL [3]: 0 CELLS/uL
- ABSOLUTE EOSINOPHIL [3]: 42.5 CELLS/uL
- ABSOLUTE LYMPHOCYTE [3]: 9180 CELLS/uL
- ABSOLUTE MONOCYTE [3]: 133 CELLS/uL
- ABSOLUTE SEGMENTED NEUTROPHIL [3]: 1544.5 CELLS/uL
- BASOPHIL [3]: 0%
- EOSINOPHIL [3]: 0.5%
- ERYTHROCYTE COUNT [3]: 6.11 x10E6/uL
- HEMATOCRIT [3]: 36.85%
- HEMOGLOBIN [3]: 13.8 G/DL
- LEUKOCYTE COUNT [3]: 10.9 x10E3/uL
- LYMPHOCYTE [3]: 84%
- MEAN CORPUSCULAR HEMOGLOBIN [3]: 22.65 pg
- MEAN CORPUSCULAR HEMOGLOBIN CONCENTRATION [3]: 37.45 G/DL
- MEAN CORPUSCULAR VOLUME [3]: 60.35 fL
- MONOCYTE [3]: 1%
- NEUTROPHIL [3]: 14.5%
- NUCLEATED RED BLOOD CELLS [3]: 0 /100WBC
- PLATELET COUNT [3]: 1518 x10E3/uL
- ALANINE AMINOTRANSFERASE [4]: 55 u/L
- ALBUMIN [4]: 4.2 G/DL
- ALKALINE PHOSPHATASE [4]: 268.5 u/L
- ASPARTATE AMINOTRANSFERASE [4]: 90 u/L
- BLOOD UREA NITROGEN [4]: 15.5 mg/dL
- CARBON DIOXIDE [4]: 32.5 mmol/L
- CHOLESTEROL [4]: 82 mg/dL
- CREATINE PHOSPHOKINASE [4]: 294.5 u/L
- CREATININE [4]: 0.22 mg/dL
- LACTATE DEHYDROGENASE [4]: 221.5 u/L
- LIPASE [4]: 14 u/L
- POTASSIUM [4]: 6.81 MEQ/L
- SODIUM [4]: 147.35 MEQ/L
- TOTAL BILIRUBIN [4]: 0.15 mg/dL
- TOTAL PROTEIN [4]: 6 G/DL
- URIC ACID [4]: 1.65 mg/dL
- ABSOLUTE BASOPHIL [5]: 0 CELLS/uL
- ABSOLUTE EOSINOPHIL [5]: 0 CELLS/uL
- ABSOLUTE MONOCYTE [5]: 61 CELLS/uL
- ABSOLUTE SEGMENTED NEUTROPHIL [5]: 1531 CELLS/uL
- BASOPHIL [5]: 0%
- EOSINOPHIL [5]: 0%
- ERYTHROCYTE COUNT [5]: 5.33 x10E6/uL
- HEMATOCRIT [5]: 34.23%
- HEMOGLOBIN [5]: 13.1 G/DL
- LEUKOCYTE COUNT [5]: 14.33 x10E3/uL
- LYMPHOCYTE [5]: 89%
- MEAN CORPUSCULAR HEMOGLOBIN [5]: 24.6 pg
- MEAN CORPUSCULAR HEMOGLOBIN CONCENTRATION [5]: 38.27 G/DL
- MONOCYTE [5]: 0.33%
- NEUTROPHIL [5]: 10.67%
- NUCLEATED RED BLOOD CELLS [5]: 0 /100WBC
- PLATELET COUNT [5]: 1191.67 x10E3/uL
- ALANINE AMINOTRANSFERASE [6]: 51 u/L
- ALBUMIN [6]: 4.1 G/DL
- ALKALINE PHOSPHATASE [6]: 345.67 u/L
- ASPARTATE AMINOTRANSFERASE [6]: 90.67 u/L
- BLOOD UREA NITROGEN [6]: 12.67 mg/dL
- CARBON DIOXIDE [6]: 22 mmol/L
- CHLORIDE [6]: 108.67 MEQ/L
- CHOLESTEROL [6]: 71.67 mg/dL
- CREATINE PHOSPHOKINASE [6]: 295.67 u/L
- CREATININE [6]: 0.21 mg/dL
- LACTATE DEHYDROGENASE [6]: 309 u/L
- LIPASE [6]: 11 u/L
- PHOSPHORUS [6]: 11.73 mg/dL
- POTASSIUM [6]: 6.03 MEQ/L
- TOTAL BILIRUBIN [6]: 0.2 mg/dL
- TOTAL PROTEIN [6]: 5.73 G/DL
- URIC ACID [6]: 1.3 mg/dL
- ABSOLUTE BASOPHIL [7]: 0 CELLS/uL
- ABSOLUTE EOSINOPHIL [7]: 0 CELLS/uL
- ABSOLUTE LYMPHOCYTE [7]: 10049 CELLS/uL
- ABSOLUTE MONOCYTE [7]: 38 CELLS/uL
- ABSOLUTE SEGMENTED NEUTROPHIL [7]: 579.67 CELLS/uL
- BASOPHIL [7]: 0%
- EOSINOPHIL [7]: 0%
- ERYTHROCYTE COUNT [7]: 5.74 x10E6/uL
- HEMATOCRIT [7]: 36.57%
- LEUKOCYTE COUNT [7]: 10.67 x10E3/uL
- LYMPHOCYTE [7]: 94.33%
- MEAN CORPUSCULAR HEMOGLOBIN [7]: 23.4 pg
- MEAN CORPUSCULAR HEMOGLOBIN CONCENTRATION [7]: 36.67 G/DL
- MONOCYTE [7]: 0.33%
- NEUTROPHIL [7]: 5.33%
- NUCLEATED RED BLOOD CELLS [7]: 0.33 /100WBC
- PLATELET COUNT [7]: 1343.67 x10E3/uL
- ALANINE AMINOTRANSFERASE [8]: 63.33 u/L
- ALKALINE PHOSPHATASE [8]: 318 u/L
- ASPARTATE AMINOTRANSFERASE [8]: 80 u/L
- CARBON DIOXIDE [8]: 24 mmol/L
- CHOLESTEROL [8]: 69.33 mg/dL
- CREATINE PHOSPHOKINASE [8]: 250 u/L
- CREATININE [8]: 0.18 mg/dL
- GLUCOSE [8]: 176.33 mg/dL
- LACTATE DEHYDROGENASE [8]: 93.33 u/L
- POTASSIUM [8]: 6.41 MEQ/L
- SODIUM [8]: 147.03 MEQ/L
- TOTAL BILIRUBIN [8]: 0.27 mg/dL
- TOTAL PROTEIN [8]: 6.2 G/DL
- URIC ACID [8]: 2.1 mg/dL
